Laboratory results as given in patent publication US20180099931A1 (AbbVie S.à.r.l., priority 2016, published 2018).
Like-named read-outs stand apart in the source and are kept apart here.

Target: T1, F508delCFTR (Homo sapiens, UniProt P13569, DEL508-508)
T1 construct: expressed in transfected cells; host or cells: CFBE41o- human lung-derived epithelial cells (CFBE4lo-F508delCFTR-HRP), doxycycline-inducible
Test: Cell Surface Expression-Horse Radish Peroxidase (CSE-HRP) Assay;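 as to Maximum % activity (with co-corrector): co-corrector and positive control are both the same reference corrector at 2 µM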;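 as to Maximum % activity (without co-corrector): percent of the 2 µM on-plate positive control corrector response above DMSO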
Assay type: cell-based
Settings: for Maximum % activity (with co-corrector) / Emax: maximum at any tested concentration, normalized to on-plate positive control; for Emax: read-out: Maximum % activity (without co-corrector)

[1] = test compound without co-corrector, read-out: EC50 (without co-corrector)
[2] = with co-corrector (2 μM of 3-[(2R,4R)-4-({[1-(2,2-difluoro-1,3-benzodioxol-5-yl)cyclopropyl]carbonyl}amino)-7-methoxy-3,4-dihydro-2H-chromen-2-yl]benzoic acid), read-out: EC50 (with co-corrector)
[3] = test compound without co-corrector
[4] = with co-corrector (2 μM of 3-[(2R,4R)-4-({[1-(2,2-difluoro-1,3-benzodioxol-5-yl)cyclopropyl]carbonyl}amino)-7-methoxy-3,4-dihydro-2H-chromen-2-yl]benzoic acid)

T1 sequence (P13569 with tags, fused parts or gaps DEL508-508): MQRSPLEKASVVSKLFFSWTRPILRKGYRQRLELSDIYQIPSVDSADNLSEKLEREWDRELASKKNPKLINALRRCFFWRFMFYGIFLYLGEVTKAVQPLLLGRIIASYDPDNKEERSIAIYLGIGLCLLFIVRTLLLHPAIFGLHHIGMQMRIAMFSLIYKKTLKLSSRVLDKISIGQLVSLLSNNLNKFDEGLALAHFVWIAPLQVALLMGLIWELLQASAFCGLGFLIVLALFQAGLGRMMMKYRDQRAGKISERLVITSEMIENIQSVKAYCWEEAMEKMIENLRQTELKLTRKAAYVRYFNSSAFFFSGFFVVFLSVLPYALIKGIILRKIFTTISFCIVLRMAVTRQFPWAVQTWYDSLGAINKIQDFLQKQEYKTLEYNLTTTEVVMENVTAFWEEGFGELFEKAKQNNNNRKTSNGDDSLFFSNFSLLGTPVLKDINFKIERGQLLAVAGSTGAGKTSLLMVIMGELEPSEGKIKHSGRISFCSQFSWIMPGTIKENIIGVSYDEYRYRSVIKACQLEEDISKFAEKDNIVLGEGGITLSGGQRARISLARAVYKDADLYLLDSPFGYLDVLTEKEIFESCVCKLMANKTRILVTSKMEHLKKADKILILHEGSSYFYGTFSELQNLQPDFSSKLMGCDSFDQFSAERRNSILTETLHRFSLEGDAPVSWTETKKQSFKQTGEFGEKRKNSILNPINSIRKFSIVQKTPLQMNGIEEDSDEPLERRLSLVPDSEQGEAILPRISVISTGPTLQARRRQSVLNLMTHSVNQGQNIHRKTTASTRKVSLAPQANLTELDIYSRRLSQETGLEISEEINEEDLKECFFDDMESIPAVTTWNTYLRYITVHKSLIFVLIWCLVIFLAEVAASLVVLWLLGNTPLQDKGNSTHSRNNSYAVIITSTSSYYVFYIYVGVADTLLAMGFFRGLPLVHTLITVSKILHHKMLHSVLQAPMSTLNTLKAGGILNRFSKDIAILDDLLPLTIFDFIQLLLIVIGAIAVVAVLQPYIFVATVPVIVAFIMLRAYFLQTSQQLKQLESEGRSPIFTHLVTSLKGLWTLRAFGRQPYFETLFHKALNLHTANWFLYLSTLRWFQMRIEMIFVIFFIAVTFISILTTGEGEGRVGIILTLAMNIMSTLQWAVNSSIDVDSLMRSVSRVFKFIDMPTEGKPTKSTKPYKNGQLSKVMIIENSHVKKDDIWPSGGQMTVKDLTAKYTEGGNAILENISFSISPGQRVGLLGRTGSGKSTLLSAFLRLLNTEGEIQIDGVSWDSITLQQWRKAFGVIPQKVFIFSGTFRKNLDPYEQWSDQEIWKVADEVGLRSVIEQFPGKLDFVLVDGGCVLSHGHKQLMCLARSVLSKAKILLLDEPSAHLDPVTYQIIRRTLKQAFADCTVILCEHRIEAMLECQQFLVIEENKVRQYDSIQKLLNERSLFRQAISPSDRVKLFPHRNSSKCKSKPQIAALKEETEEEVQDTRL

Q: With `COc1cc(C(F)(F)F)ccc1CN[C@H]1[C@H](C(C)(C)C)[C@@H](C(=O)O)N(C(=O)C2CCCCC2)[C@H]1c1ccccc1` [Example 8, (2S,3S,4S,5S)-3-tert-butyl-1-(cyclohexanecarbonyl)-4-({[2-methoxy-4-(trifluoromethyl)phenyl]methyl}amino)-5-phenylpyrrolidine-2-carboxylic acid] as the compound, how does the EC50 [1] read?
A: The EC50 was 1 to 10 µM.

Q: What about the EC50 [2] of the same compound?
A: The EC50 was < 1 µM.

Q: And the “Maximum % activity (with co-corrector)” value (with co-corrector (2 μM))?
A: Its value is “+++ (≥350)”.

Q: What about the Emax (without co-corrector) of the same compound?
A: Its Emax is 100 to 200%.

Q: Which results are given for `COc1ccc(C(C)(C)C)cc1CN[C@H]1[C@H](C(C)(C)OC)[C@@H](C(=O)O)N(C(=O)C2CCCCC2)[C@H]1c1cccnc1OC` [Example 40, (2S,3S,4S,5S)-4-{[(5-tert-butyl-2-methoxyphenyl)methyl]amino}-1-(cyclohexanecarbonyl)-3-(2-methoxypropan-2-yl)-5-(2-methoxypyridin-3-yl)pyrrolidine-2-carboxylic acid]?
A: EC50 [1]: 1 to 10 µM; EC50 [2]: 1 to 10 µM; Maximum % activity (with co-corrector) (with co-corrector (2 μM)): +++ (≥350); Emax (without co-corrector): > 200%

Q: Which results are given for `COc1ncc(C2CCC2)cc1CN[C@H]1[C@H](C(C)(C)C)[C@@H](C(=O)O)N(C(=O)[C@@H]2CCCCO2)[C@H]1c1ccccc1C(C)C` [Example 73, (2S,3S,4S,5S)-3-tert-butyl-4-{[(5-cyclobutyl-2-methoxypyridin-3-yl)methyl]amino}-1-[(2S)-oxane-2-carbonyl]-5-[2-(propan-2-yl)phenyl]pyrrolidine-2-carboxylic acid]?
A: EC50 [1]: < 1 µM; EC50 [2]: < 1 µM; Maximum % activity (with co-corrector) (with co-corrector (2 μM)): +++ (≥350); Emax (without co-corrector): > 200%

Q: What does the source list for `COc1ccc(C(F)(F)F)cc1CN[C@@H]1[C@@H](C(C)(C)C)[C@H](C(=O)O)N(C(=O)C(OC)c2ccccc2)[C@@H]1c1cccnc1N(C)C` (relative stereo) [III-88]?
A: Emax [3]: < 100%; EC50 [1]: > 10 µM; Maximum % activity (with co-corrector) [4]: ++ (≥150 and <350); EC50 [2]: 1 to 10 µM

Q: How did the EC50 [1] turn out when `COc1ncc(C(F)(F)F)cc1CN[C@H]1[C@H](C(C)(C)C)[C@@H](C(=O)O)N(C(=O)[C@@H]2CCC[C@@H](OC)C2)[C@H]1c1ccccc1` [Example I-79] was run?
A: Its EC50 is 1 to 10 µM.

Q: What about the EC50 [2] of the same compound?
A: The EC50 was 1 to 10 µM.

Q: What about the “Maximum % activity (with co-corrector)” value (with co-corrector (2 μM)) of the same compound?
A: The value was “+++ (≥350)”.

Q: What about the Emax (without co-corrector) of the same compound?
A: Its Emax is > 200%.

Q: How did the EC50 [1] turn out when `COc1ncc(C(F)(F)F)cc1CN[C@H]1[C@H](C(C)(C)C)[C@@H](C(=O)O)N(C(=O)C2CCCCC2)[C@H]1c1ccc(F)cc1` [Example 26, (2S,3S,4S,5S)-3-tert-butyl-1-(cyclohexanecarbonyl)-5-(4-fluorophenyl)-4-({[2-methoxy-5-(trifluoromethyl)pyridin-3-yl]methyl}amino)pyrrolidine-2-carboxylic acid] was run?
A: The EC50 was < 1 µM.

Q: And the EC50 [2]?
A: The EC50 was < 1 µM.

Q: What about the “Maximum % activity (with co-corrector)” value (with co-corrector (2 μM)) of the same compound?
A: Its value is “+++ (≥350)”.

Q: What about the Emax (without co-corrector) of the same compound?
A: The Emax was 100 to 200%.

Q: How did the EC50 (CSE-HRP, test compound without co-corrector, read-out: EC50 (without co-corrector)) turn out when `CC(C)(C)[C@H]1[C@H](NCc2cccc(C(F)(F)F)c2)[C@H](c2ccccc2)N(C(=O)C2CCCCC2)[C@@H]1C(=O)O` [II-122] was run?
A: The EC50 was 1 to 10 µM.

Q: What about the EC50 (CSE-HRP, with co-corrector (2 μM of 3-[(2R,4R)-4-({[1-(2,2-difluoro-1,3-benzodioxol-5-yl)cyclopropyl]carbonyl}amino)-7-methoxy-3,4-dihydro-2H-chromen-2-yl]benzoic acid), read-out: EC50 (with co-corrector)) of the same compound?
A: Its EC50 is 1 to 10 µM.

Q: What about the “Maximum % activity (with co-corrector)” value (CSE-HRP, with co-corrector (2 μM)) of the same compound?
A: The value was “++ (≥150 and <350)”.

Q: What about the Emax (CSE-HRP, without co-corrector) of the same compound?
A: Its Emax is < 100%.

Q: With `COc1ccc(Cl)cc1CN[C@@H]1[C@@H](C)[C@H](C(=O)O)N(C(=O)N(C(C)C)C(C)C)[C@@H]1c1ccccc1` (racemic) [III-37] as the compound, how does the Emax [3] read?
A: The Emax was < 100%.

Q: What about the EC50 [1] of the same compound?
A: Its EC50 is > 10 µM.

Q: What about the “Maximum % activity (with co-corrector)” value [4] of the same compound?
A: Its value is “++ (≥150 and <350)”.

Q: What about the EC50 [2] of the same compound?
A: Its EC50 is 1 to 10 µM.

Q: `COc1ccc(C(C)(C)C)cc1CN[C@H]1[C@H](C(C)(C)C)[C@@H](C(=O)O)N(C(=O)c2ccc(OC3CCCCC3)cc2)[C@H]1c1cccnc1N(C)C` [Example I-200] was tested. Which EC50 [1] did it give?
A: Its EC50 is 1 to 10 µM.

Q: What about the EC50 [2] of the same compound?
A: The EC50 was < 1 µM.

Q: And the “Maximum % activity (with co-corrector)” value (with co-corrector (2 μM))?
A: The value was “+++ (≥350)”.

Q: What about the Emax (without co-corrector) of the same compound?
A: Its Emax is 100 to 200%.

Q: `COc1ccc(C(F)(F)F)cc1CN[C@H]1[C@H](C(C)(C)C)[C@@H](C(=O)O)N(C(=O)C2CC3CC3C2)[C@H]1c1ccccc1` (stereo partly shown) [Example I-162] was tested. Which EC50 [1] did it give?
A: The EC50 was 1 to 10 µM.

Q: What about the EC50 [2] of the same compound?
A: Its EC50 is 1 to 10 µM.

Q: What about the “Maximum % activity (with co-corrector)” value (with co-corrector (2 μM)) of the same compound?
A: The value was “+++ (≥350)”.

Q: And the Emax (without co-corrector)?
A: Its Emax is 100 to 200%.
